Source: patent US8487001B2, “Medium-chain length fatty acids, glycerides and analogues as neutrophil survival and activation factors” (ProMetic BioSciences Inc., priority 2001, dated 2013)
“Also recorded” adds a separate entry of the source.

Legend:
bone marrow cells = test: In vivo chemoprotection: bone marrow cell count; conditions: for effect on bone marrow cell count, post-treatment: post-treatment per o.s. on day 1, 2, 3 and 4
Experimental: (§1) To examine the immunoprotective effect of MCT or other compounds, mice were pre-treated orally at day-3, -2 and -1 or treated intravenously at day 0 with the test compound. Mice were sacrificed at day +5 by cardiac puncture and cervical dislocation. Then, cell suspensions were prepared from thymus, spleen and bone marrow as follow.
(§2) Tissues were crushed in PBS buffer and contaminating erythrocytes were lysed in ACK buffer (155 mM NH4Cl, 12 mM NaHCO3, 0.1 mM EDTA, pH 7.3) for 5 minutes. Cells were then collected by centrifugation and washed three times in PBS and resuspended in tissue culture medium. Cells were counted on a hemacytometer.
(§3) Chemoprotection studies were performed as described in example 16 except that mice were (post)-treated with MCT, sodium caprylate, sodium caprate or capric acid per o.s. on day 1, 2, 3 and 4.

spleen cells = test: In vivo chemoprotection: spleen cell count
Experimental: as §1, §2, §3

blood cell subsets = test: Blood immunophenotyping (flow cytometry of cell surface markers); type: in vivo, C57BL/6 mice; conditions: CY (200 mg/kg) immunosuppressed mice
Experimental: (§4) Female, 6- to 8-week old, C57BL/6 mice were pre-treated on day -3, -2 and -1 per o.s. or intravenously at day 0 with different concentrations of MCT. Immunophenotyping was also performed on immunosuppressed animals. […] Mice were sacrificed on day 5 by cardiac puncture. Blood and spleens were collected and cell suspensions prepared and erythrocytes lysed in ACK buffer (155 mM NH4Cl, 12 mM NaHCO3, 0.1 mM EDTA, pH 7.3) for 5 minutes. The cells were washed three times in PBS, pH 7.4 and resuspended in tissue culture medium. The cells were then incubated for 45 minutes on ice with fluorescein isothiocyanate (FITC) or phycoerythrin (PE) conjugated cell surface marker according to the manufacturer's (Gibco/BRL, Cedarlane, Boehringer Mannheim) recommendation. The cells were then washed in PBS, fixed with 1% paraformaldehyde and analyzed with a Coulter XL flow cytometer. Analysis of the cell subsets was undertaken by determination of standard cell surface markers which were as follows: TCR (T-cell receptor), CD4 (T helper), CD8 (T cytotoxic/suppressor), CD11b (macrophage), NK (NK cells) and Ly5 (B-cells). Bone marrow cells were obtained as described in example 15. Cells were stained by a 45 minutes incubation of FITC or PE conjugated cell surface marker according to the manufacturer's recommendation. The cells were then washed in PBS, fixed with 1% paraformaldehyde and analyzed with a Coulter XL flow cytometer. Analysis of the cell subsets was undertaken by determination of standard cell surface markers which were as follows: CD34 (hematopoietic progenitor cells), CD41 (platelets, megakaryocytes), CD13 (myelomonocytic stem cells, myelocytes, promonocytes) and CD38 (lymphoid stem cells, pro-B, pre-B).

spleen cell subsets = test: Spleen immunophenotyping (flow cytometry of cell surface markers); type: in vivo, C57BL/6 mice; conditions: CY (200 mg/kg) immunosuppressed mice
Experimental: as §4

bone marrow cell subsets = test: Bone marrow immunophenotyping (CD34, CD13, CD41, CD38); type: in vivo, C57BL/6 mice; conditions: for Bone marrow immunophenotyping: CY-treated mice, test substances compared to cyclophosphamide alone; for % Cells CD13+ (bone marrow) / % Cells CD34+ (bone marrow) / % Cells CD38+ (bone marrow) / % Cells CD41+ (bone marrow): Table 15, CY (200 mg/kg) immunosuppressed mice, CY + test substance (Cyclophosphamide line = CY alone)
Experimental: as §4
The effect of MCT, sodium caprylate, sodium caprate on bone marrow immunophenotyping was assessed by the protocol described in example 26.

[1] = CY-treated mice, protocol of example 16 (pre-treatment)
[2] = Table 16, CY-treated mice, CY + test compound (CY line = CY alone), protocol of example 16
[3] = Table 8, CY-immunosuppressed mice, CY + test compound 6.25 μM (CY line = CY alone)
[4] = Table 5, CY-treated mice, CY + test compound (CY line = CY alone), protocol of example 16
[5] = Table 7, CY-treated mice, CY + test compound 6.25 μMole pre-treatment (CY line = CY alone)
[6] = Table 9, CY-immunosuppressed mice, CY + test compound 6.25 μMole (CY line = CY alone)
[7] = Table 6, CY-treated mice, CY + test compound (CY line = CY alone), protocol of example 16
[8] = Table 17, CY-treated mice, CY + test compound (CY line = CY alone), protocol of example 16
[9] = Table 10, CY-treated mice, post-treatment per o.s. on day 1, 2, 3 and 4 with test substance 12.5 μM (CY line = CY alone)

SMILES: CCCCCCCCCC(=O)NC(COC(=O)CCCCCCCCC)COC(=O)CCCCCCCCC [tridecanoyl serinol, 1,2,3-O,N,O-Tridecanoyl serinol]
- effect on bone marrow cell count compared to cyclophosphamide treated mice (bone marrow cells; [1]): No significant effect
- Bone Marrow # Cells (×10^6) (bone marrow cells; [2]): 28 ± 4.6 ×10^6
- effect on spleen cell count compared to cyclophosphamide treated mice (spleen cells; [1]): significantly enhances the spleen cell counts
- Spleen # Cells (×10^6) (spleen cells; [2]): 42 ± 8.4 ×10^6

SMILES: CCCCCCCCCC(=O)OCC [ethyl caprate]
- Bone Marrow # Cells (×10^6) (bone marrow cells; Table 18, CY-treated mice, CY + test compound (CY line = CY alone), protocol of example 16): 27.5 ± 4.4 ×10^6

SMILES: CCCCCCCCCCCC(=O)OCC(COC(=O)CCCCCCCCCCC)OC(=O)CCCCCCCCCCC [trilaurin]
- effect on bone marrow cell count compared to cyclophosphamide treated mice (bone marrow cells; [1]): weak (not significant) activity
- Bone Marrow # Cells (×10^6) (bone marrow cells; [3]): 31 ± 6.8 ×10^6
- Blood Immunophenotyping: effect compared to cyclophosphamide alone (words) (blood cell subsets): no significant effect compared to cyclophosphamide alone
- Blood Immunophenotyping: effect compared to cyclophosphamide alone (words) (blood cell subsets; listed as Trilaurin): No significant effect
- effect on spleen cell count compared to cyclophosphamide treated mice (spleen cells; [1]): weak (not significant) activity
- Spleen # Cells (×10^6) (spleen cells; [3]): 28 ± 19.5 ×10^6
- Spleen Immunophenotyping: effect compared to cyclophosphamide alone (words) (spleen cell subsets): enhance the relative percentage of CD11+; also recorded: induces a significant increase in the LY5-TCR- and NK+ cell subsets
- Spleen Immunophenotyping: CD11+ cell subset (relative percentage) (spleen cell subsets; Table 14, compound 6.25 μM): 43.94 ± 4.78
- Spleen Immunophenotyping: LY5−TCR− cell subset (relative percentage) (spleen cell subsets; Table 14, compound 6.25 μM): 77.86 ± 2.94
- Spleen Immunophenotyping: NK+ cell subset (relative percentage) (spleen cell subsets; Table 14, compound 6.25 μM): 17.46 ± 5.80

SMILES: CCCCCCCC(=O)O [caprylic acid]
- Bone Marrow # Cells (×10^6) (bone marrow cells; [4]): 26 ± 3.58 ×10^6
- effect on spleen cell count compared to cyclophosphamide treated mice (spleen cells; [1]): No significant effect
- Spleen # Cells (×10^6) (spleen cells; [4]): 28 ± 6.4 ×10^6

SMILES: CCCCCCCCCCCC(=O)O [lauric acid]
- effect on bone marrow cell count compared to cyclophosphamide treated mice (bone marrow cells; [1]): Significant increases in proliferation or protection of bone marrow and spleen cell counts
- Bone Marrow # Cells (×10^6) (bone marrow cells; [5]): 42 ± 7.8 ×10^6
- effect on spleen cell count compared to cyclophosphamide treated mice (spleen cells; [1]): Significant increases in proliferation or protection of bone marrow and spleen cell counts
- Spleen # Cells (×10^6) (spleen cells; [5]): 32 ± 5 ×10^6

SMILES: CCCCCCCCC(=O)O [nonanoic acid]
- effect on bone marrow cell count compared to cyclophosphamide treated mice (bone marrow cells; [1]): weak (not significant) activity on immune cell counts
- Bone Marrow # Cells (×10^6) (bone marrow cells; [5]): 36 ± 5.6 ×10^6
- effect on spleen cell count compared to cyclophosphamide treated mice (spleen cells; [1]): weak (not significant) activity on immune cell counts
- Spleen # Cells (×10^6) (spleen cells; [5]): 28 ± 4 ×10^6

SMILES: CCCCCCCCCCCCCC(=O)OCC(COC(=O)CCCCCCCCCCCCC)OC(=O)CCCCCCCCCCCCC [trimyristin]
- effect on bone marrow cell count compared to cyclophosphamide treated mice (bone marrow cells; [1]): weak (not significant) activity
- Bone Marrow # Cells (×10^6) (bone marrow cells; [3]): 31 ± 9.9 ×10^6
- Blood Immunophenotyping: effect compared to cyclophosphamide alone (words) (blood cell subsets): no significant effect compared to cyclophosphamide alone
- Blood Immunophenotyping: effect compared to cyclophosphamide alone (words) (blood cell subsets; listed as Trimyristin): No significant effect
- effect on spleen cell count compared to cyclophosphamide treated mice (spleen cells; [1]): weak (not significant) activity
- Spleen # Cells (×10^6) (spleen cells; [3]): 15 ± 4.6 ×10^6
- Spleen Immunophenotyping: effect compared to cyclophosphamide alone (words) (spleen cell subsets): enhance the relative percentage of CD11+
- Spleen Immunophenotyping: CD11+ cell subset (relative percentage) (spleen cell subsets; Table 14, compound 6.25 μM): 42.94 ± 8.45

SMILES: CCCCCC(=O)[O-].[Na+] [sodium caproate]
- Bone Marrow # Cells (×10^6) (bone marrow cells; [6]): 39 ± 17.9 ×10^6
- effect on bone marrow cell count compared to cyclophosphamide treated mice (bone marrow cells; mouse, in vivo): weak (not significant) activity
- Blood Immunophenotyping: effect compared to cyclophosphamide alone (words) (blood cell subsets): significantly increase the relative percentage of LY5-TCR- on blood
- Blood Immunophenotyping: LY5−TCR− cell subset (relative percentage) (blood cell subsets; Table 14, compound 6.25 μM): 52.43 ± 10.16
- Spleen # Cells (×10^6) (spleen cells; [6]): 35 ± 10.6 ×10^6
- effect on spleen cell count compared to cyclophosphamide treated mice (spleen cells; mouse, in vivo): weak (not significant) activity

SMILES: CCCCCCCCCC(=O)OCC(COC(=O)CCCCCCCCC)OC(=O)CCCCCCCCC [tricaprin]
- effect on bone marrow cell count compared to cyclophosphamide treated mice (bone marrow cells; [1]): efficacious in the proliferation or protection of bone marrow cell counts
- Bone Marrow # Cells (×10^6) (bone marrow cells; [7]): 31 ± 3.8 ×10^6
- effect on spleen cell count compared to cyclophosphamide treated mice (spleen cells; [1]): No significant effect
- Spleen # Cells (×10^6) (spleen cells; [7]): 38 ± 6.8 ×10^6

SMILES: CCCCCCCCCC(=O)OC1C(C)OC(OC)C(OC(=O)CCCCCCCCC)C1OC(=O)CCCCCCCCC [α-methyl tridecanoyl-L-fucopyranose, α-O-Methyl-2,3,4,—O,O,O-tridecanoyl-L-fucopyranose]
- Bone Marrow # Cells (×10^6) (bone marrow cells; [8]): 30.4 ± 9.3 ×10^6
- effect on bone marrow cell count compared to cyclophosphamide treated mice (bone marrow cells; mouse, in vivo): lack of activity

SMILES: CCCCCC(=O)OCC(COC(=O)CCCCC)OC(=O)CCCCC [tricaproin]
- effect on bone marrow cell count compared to cyclophosphamide treated mice (bone marrow cells; [1]): weak (not significant) activity
- Bone Marrow # Cells (×10^6) (bone marrow cells; [6]): 29 ± 4.1 ×10^6
- effect on spleen cell count compared to cyclophosphamide treated mice (spleen cells; [1]): weak (not significant) activity
- Spleen # Cells (×10^6) (spleen cells; [6]): 37 ± 8.7 ×10^6

SMILES: O=c1[nH]cc(F)c(=O)[nH]1 [5-FU, 5-fluorouracil, reference compound]
- effect of cytotoxic drug on bone marrow cell count compared to the control (bone marrow cells; mouse, in vivo, iv): depressed the bone marrow cell count compared to the control
- effect of cytotoxic drug on spleen cell count compared to the control (spleen cells; mouse, in vivo, iv): reduce significantly the spleen cell count compared to the control

SMILES: CCCCCCCCCC(=O)OC1C(C)OC(OC)C(OC(=O)CCCCCCCCC)C1OC(=O)CCCCCCCCC [β-methyl tridecanoyl-L-fucopyranose, β-O-Methyl-2,3,4,—O,O,O-tridecanoyl-L-fucopyranose]
- Bone Marrow # Cells (×10^6) (bone marrow cells; [8]): 34.6 ± 8.5 ×10^6
- effect on bone marrow cell count compared to cyclophosphamide treated mice (bone marrow cells; mouse, in vivo): weak (not significant) activity on bone marrow cell counts

SMILES: CCCCCCCCCC(=O)[O-].[Na+] [sodium caprate]
- effect on bone marrow cell count, post-treatment (bone marrow cells; CY-treated mice): significant increase in bone marrow cell count
- effect on bone marrow cell count compared to cyclophosphamide treated mice (bone marrow cells; [1]): significant increase in proliferation or protection of bone marrow cell count
- Bone Marrow # Cells (×10^6) (bone marrow cells; [9]): 29 ± 4.45 ×10^6
- Bone marrow immunophenotyping (bone marrow cell subsets): amplifies the number of CD13+ lineage
- % Cells CD13+ (bone marrow) (bone marrow cell subsets): 4.7 ± 1.7%
- % Cells CD34+ (bone marrow) (bone marrow cell subsets): 9.1 ± 3.1%
- % Cells CD38+ (bone marrow) (bone marrow cell subsets): 44.3 ± 22.8%
- % Cells CD41+ (bone marrow) (bone marrow cell subsets): 3.7 ± 0.7%
- Spleen # Cells (×10^6) (spleen cells; [9]): 28 ± 6.3 ×10^6

SMILES: CCCCCCCC(=O)[O-].[Na+] [sodium caprylate]
- effect on bone marrow cell count, post-treatment (bone marrow cells; CY-treated mice): significant increase in bone marrow cell count
- effect on bone marrow cell count compared to cyclophosphamide treated mice (bone marrow cells; [1]): significant increase in proliferation or protection of bone marrow cell count
- Bone Marrow # Cells (×10^6) (bone marrow cells; [9]): 26 ± 5.33 ×10^6
- Bone marrow immunophenotyping (bone marrow cell subsets): amplifies the number of CD13+ lineage
- % Cells CD13+ (bone marrow) (bone marrow cell subsets): 4.9 ± 1.2%
- % Cells CD34+ (bone marrow) (bone marrow cell subsets): 11.2 ± 1.3%
- % Cells CD38+ (bone marrow) (bone marrow cell subsets): 36 ± 9.7%
- % Cells CD41+ (bone marrow) (bone marrow cell subsets): 4.6 ± 1.3%
- Spleen # Cells (×10^6) (spleen cells; [9]): 36 ± 12.5 ×10^6
